Measured values reported in paper PMC11881035, “^68Ga-Labeled Glycopeptides as Effective Tools for Liver Function Imaging” (Molecular Pharmaceutics, 2025).
Where two headings read alike, the source gives them in different places.

Columns and labels:
[1] = complex stability in human blood serum; format: in vitro ADME
Experimental: (§1) The ^68Ge/^68Ga generator, devices for analytical HPLC, semipreparative HPLC, mass spectrometry, radio-thin layer chromatography, gamma counter and animal models for biodistribution and imaging studies including the image reconstruction procedures were the same as described before.[22] Stability assays in PBS and human blood serum, protein binding as well as determination of log D values followed established protocols.[25] Binding affinities (IC50) of selected ligands were determined in an isolated receptor-based assay according to a previously published procedure with minor modifications.[22] Dilutions of nonradioactive complexes were made with PBS + 0.1% BSA (10^–5–10^–12 M). Preparation of [^125I]I-Asialoorosomucoid which serves as the radioactive standard ligand has been published recently.[21]

[2] = target: T1, ASGR (Mus musculus, UniProt P24721+P34927); experiment: blocking experiment, coinjection of N-acetylgalactosamine, biodistribution in BALB/c mice; details: in vivo, 30 min p.i., 27.7 μmol N-acetylgalactosamine
T1 construct: from tissue; host or cells: liver and other organs of living healthy female BALB/c mice
T1 sequence (P34927 1-284): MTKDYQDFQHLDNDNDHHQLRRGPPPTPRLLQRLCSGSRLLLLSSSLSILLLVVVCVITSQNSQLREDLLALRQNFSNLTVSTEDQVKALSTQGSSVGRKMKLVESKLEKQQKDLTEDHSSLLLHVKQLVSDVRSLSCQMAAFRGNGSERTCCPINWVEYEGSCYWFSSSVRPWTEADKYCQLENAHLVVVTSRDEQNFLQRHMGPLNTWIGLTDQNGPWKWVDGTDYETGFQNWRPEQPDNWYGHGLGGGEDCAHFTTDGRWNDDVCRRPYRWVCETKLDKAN
T1 sequence (P24721 1-301): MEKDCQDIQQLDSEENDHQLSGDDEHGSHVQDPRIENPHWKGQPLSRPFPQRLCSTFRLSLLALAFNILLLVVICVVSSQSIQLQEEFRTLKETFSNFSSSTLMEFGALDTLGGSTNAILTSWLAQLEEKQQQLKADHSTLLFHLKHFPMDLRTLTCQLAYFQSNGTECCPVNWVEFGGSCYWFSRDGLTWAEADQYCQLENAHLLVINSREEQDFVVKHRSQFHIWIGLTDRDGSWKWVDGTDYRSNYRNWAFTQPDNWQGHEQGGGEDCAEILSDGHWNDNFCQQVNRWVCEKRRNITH
Experimental: Less liver uptake was found for [^68Ga]Ga-NODAGA-HexaLysan (55.5 ± 7.4% ID/g, 30 min p.i.) and least for [^68Ga]Ga-NODAGA-TriLysan (9.4 ± 2.0% ID/g, 30 min p.i.). […] However, an increasing activity accumulation in the intestine was found for [^68Ga]Ga-NODAGA-NonaLysan, [^68Ga]Ga-NODAGA-GalNAc-Nonalysan, and [^68Ga]Ga-NODAGA-HexaLysan over time. Nevertheless, liver-to-organ ratios were highest for [^68Ga]Ga-NODAGA-NonaLysan (Figure 3). Lower liver-to-organ ratios were found for the GalNAc derivative due to higher off-target binding in the pancreas, stomach, heart, muscle, lung, and femur. […] Coinjection of both nonamers with a large excess of N-acetylgalactosamine led to a statistically significant reduction of liver uptake indicating specific interactions of the tracers with their target (Figure 4). As a consequence of the reduced liver uptake also a reduction of the intestinal uptake was observed.
Figure 4 Data (% ID/g) from the blocking experiments using ^68Ga-labeled NODAGA-GalNAc-NonaLysan and NODAGA-NonaLysan in healthy BALB/c mice at 30 min p.i. Blocking was carried out using 27.7 μmol of N-acetylgalactosamine (**p ≤ 0.01; *p ≤ 0.05).

[3] = log D determination; format: physicochemical; details: read-out: log D
Experimental: as §1

[4] = complex stability in PBS; format: physicochemical
Experimental: as §1

[5] = biodistribution in healthy BALB/c mice; details: mouse, in vivo; for tissue uptake at 10 min: 10 min p.i.; for tissue uptake at 0.5 h: 30 min p.i.; for tissue uptake at 1 h: 60 min p.i.
Experimental: as §1
Animal experiments were performed in accordance with the Austrian animal experiments law (BGBl. I Nr. 114/2012) and the institution’s animal welfare standards as approved by the Austrian Federal Ministry of Education, Science and Research (BMBWF, 2022–0.311.708). Imaging experiments were conducted at Werner Siemens Imaging Center (Tübingen, Germany) according to the German animal welfare act as approved by the local authorities (R5/19 G, R09/21 G).
Figure 2 Biodistribution data (% ID/g) of ^68Ga-labeled NODAGA-GalNAc-NonaLysan, NODAGA-NonaLysan, NODAGA-HexaLysan, and NODAGA-TriLysan in healthy BALB/c mice at 10, 30, and 60 min p.i. (100 pmol, 1 MBq).

[6] = protein binding in human serum; format: in vitro ADME; details: human, serum, read-out: protein binding (%) (converted)
Experimental: as §1

complex stability in serum (% intact ligand) ([1]; 2 min): 98.8 ± 0.1% | complex stability in serum (% intact ligand) ([1]; 30 min): 98.8% | complex stability in serum (% intact ligand) ([1]; 60 min): 99.0 ± 0.2% | complex stability in serum (% intact ligand) ([1]; 120 min): 98.8 ± 0.2% | tissue uptake at 0.5 h ([2]; read-out: Blood uptake): 0.4 ± 0.1 %ID/g | tissue uptake at 0.5 h ([2]; read-out: Femur uptake): 0.7 ± 0.3 %ID/g | tissue uptake at 0.5 h ([2]; read-out: Heart uptake): 0.8 ± 0.1 %ID/g | tissue uptake at 0.5 h ([2]; read-out: Intestine uptake): 1.9 ± 0.4 %ID/g | tissue uptake at 0.5 h ([2]; read-out: Kidneys uptake): 1.9 ± 0.4 %ID/g | tissue uptake at 0.5 h ([2]; read-out: Liver uptake): 52.9 ± 3.2 %ID/g | tissue uptake at 0.5 h ([2]; read-out: Lung uptake): 1.3 ± 0.3 %ID/g | tissue uptake at 0.5 h ([2]; read-out: Muscle uptake): 1 ± 0.3 %ID/g | tissue uptake at 0.5 h ([2]; read-out: Pancreas uptake): 1.5 ± 0.8 %ID/g | tissue uptake at 0.5 h ([2]; read-out: Spleen uptake): 0.3 ± 0.02 %ID/g | tissue uptake at 0.5 h ([2]; read-out: Stomach uptake): 2.4 ± 0.9 %ID/g | logD [3]: -4.05 | complex stability in PBS (% intact ligand) ([4]; 2 min): 99.1% | complex stability in PBS (% intact ligand) ([4]; 30 min): 99.0% | complex stability in PBS (% intact ligand) ([4]; 60 min): 99.1% | complex stability in PBS (% intact ligand) ([4]; 120 min): 99.1% | tissue uptake at 10 min ([5]; read-out: Blood uptake): 0.9 ± 0.5 %ID/g | tissue uptake at 10 min ([5]; read-out: Femur uptake): 0.9 ± 0.4 %ID/g | tissue uptake at 10 min ([5]; read-out: Heart uptake): 1.9 ± 0.5 %ID/g | tissue uptake at 10 min ([5]; read-out: Intestine uptake): 1.3 ± 0.3 %ID/g | tissue uptake at 10 min ([5]; read-out: Kidneys uptake): 3.6 ± 2.7 %ID/g | tissue uptake at 10 min ([5]; read-out: Liver uptake): 69.4 ± 5 %ID/g | tissue uptake at 10 min ([5]; read-out: Lung uptake): 1.5 ± 0.1 %ID/g | tissue uptake at 10 min ([5]; read-out: Muscle uptake): 1.3 ± 0.3 %ID/g | tissue uptake at 10 min ([5]; read-out: Pancreas uptake): 5 ± 0.5 %ID/g | tissue uptake at 10 min ([5]; read-out: Spleen uptake): 0.3 ± 0.1 %ID/g | tissue uptake at 10 min ([5]; read-out: Stomach uptake): 2.3 ± 0.4 %ID/g | tissue uptake at 0.5 h ([5]; read-out: Blood uptake): 0.3 ± 0.1 %ID/g | tissue uptake at 0.5 h ([5]; read-out: Femur uptake): 0.8 ± 0.1 %ID/g | tissue uptake at 0.5 h ([5]; read-out: Heart uptake): 1.7 ± 0.2 %ID/g | tissue uptake at 0.5 h ([5]; read-out: Intestine uptake): 3.5 ± 0.2 %ID/g | tissue uptake at 0.5 h ([5]; read-out: Kidneys uptake): 1.5 ± 0.2 %ID/g | tissue uptake at 0.5 h ([5]; read-out: Liver uptake): 77.6 ± 8 %ID/g | tissue uptake at 0.5 h ([5]; read-out: Lung uptake): 1.5 ± 0.2 %ID/g | tissue uptake at 0.5 h ([5]; read-out: Muscle uptake): 1.2 ± 0.1 %ID/g | tissue uptake at 0.5 h ([5]; read-out: Pancreas uptake): 5.6 ± 0.6 %ID/g | tissue uptake at 0.5 h ([5]; read-out: Spleen uptake): 0.3 ± 0.03 %ID/g | tissue uptake at 0.5 h ([5]; read-out: Stomach uptake): 2.7 ± 1 %ID/g | tissue uptake at 1 h ([5]; read-out: Blood uptake): 0.3 ± 0.1 %ID/g | tissue uptake at 1 h ([5]; read-out: Femur uptake): 0.9 ± 0.4 %ID/g | tissue uptake at 1 h ([5]; read-out: Heart uptake): 1.7 ± 0.1 %ID/g | tissue uptake at 1 h ([5]; read-out: Intestine uptake): 5.6 ± 0.03 %ID/g | tissue uptake at 1 h ([5]; read-out: Kidneys uptake): 1.3 ± 0.02 %ID/g | tissue uptake at 1 h ([5]; read-out: Liver uptake): 57.6 ± 0.7 %ID/g | tissue uptake at 1 h ([5]; read-out: Lung uptake): 1.2 ± 0.04 %ID/g | tissue uptake at 1 h ([5]; read-out: Muscle uptake): 1.1 ± 0.1 %ID/g | tissue uptake at 1 h ([5]; read-out: Pancreas uptake): 5 ± 0.6 %ID/g | tissue uptake at 1 h ([5]; read-out: Spleen uptake): 0.3 ± 0.1 %ID/g | tissue uptake at 1 h ([5]; read-out: Stomach uptake): 2.2 %ID/g | fraction unbound ([6]; 2 min): 0.858 | fraction unbound ([6]; 30 min): 0.86 | fraction unbound ([6]; 60 min): 0.826 | fraction unbound ([6]; 120 min): 0.884
Structure (SMILES): CC(=O)N[C@@H]1[C@@H](O)[C@@H](O)[C@@H](CO)O[C@H]1n1cc(CCCCC(=O)NCCCC[C@H](NC(=O)CCCNC(=O)CCC(C(=O)O)N2CCN(CC(=O)O)CCN(CC(=O)O)CC2)C(=O)NCC(=O)NCC(=O)N[C@@H](CCCCNC(=O)CCCCc2cn([C@@H]3O[C@H](CO)[C@H](O)[C@H](O)[C@H]3NC(C)=O)nn2)C(=O)NCC(=O)NCC(=O)N[C@@H](CCCCNC(=O)CCCCc2cn([C@@H]3O[C@H](CO)[C@H](O)[C@H](O)[C@H]3NC(C)=O)nn2)C(=O)NCC(=O)NCC(=O)N[C@@H](CCCCNC(=O)CCCCc2cn([C@@H]3O[C@H](CO)[C@H](O)[C@H](O)[C@H]3NC(C)=O)nn2)C(=O)NCC(=O)NCC(=O)N[C@@H](CCCCNC(=O)CCCCc2cn([C@@H]3O[C@H](CO)[C@H](O)[C@H](O)[C@H]3NC(C)=O)nn2)C(=O)NCC(=O)NCC(=O)N[C@@H](CCCCNC(=O)CCCCc2cn([C@@H]3O[C@H](CO)[C@H](O)[C@H](O)[C@H]3NC(C)=O)nn2)C(=O)NCC(=O)NCC(=O)N[C@@H](CCCCNC(=O)CCCCc2cn([C@@H]3O[C@H](CO)[C@H](O)[C@H](O)[C@H]3NC(C)=O)nn2)C(=O)NCC(=O)NCC(=O)N[C@@H](CCCCNC(=O)CCCCc2cn([C@@H]3O[C@H](CO)[C@H](O)[C@H](O)[C@H]3NC(C)=O)nn2)C(=O)NCC(=O)NCC(=O)N[C@@H](CCCCNC(=O)CCCCc2cn([C@@H]3O[C@H](CO)[C@H](O)[C@H](O)[C@H]3NC(C)=O)nn2)C(=O)NCC(=O)NCC(N)=O)nn1 (stereo partly drawn) [[^68Ga]Ga-NODAGA-GalNAc-NonaLysan, metal not drawn]
